Target: T1, hTLR9 (Homo sapiens, UniProt Q9NR96)
T1 construct: expressed in transfected cells; host or cells: HEK-Blue-hTLR9 cells (HEK293)
T1 sequence (Q9NR96 26-1032): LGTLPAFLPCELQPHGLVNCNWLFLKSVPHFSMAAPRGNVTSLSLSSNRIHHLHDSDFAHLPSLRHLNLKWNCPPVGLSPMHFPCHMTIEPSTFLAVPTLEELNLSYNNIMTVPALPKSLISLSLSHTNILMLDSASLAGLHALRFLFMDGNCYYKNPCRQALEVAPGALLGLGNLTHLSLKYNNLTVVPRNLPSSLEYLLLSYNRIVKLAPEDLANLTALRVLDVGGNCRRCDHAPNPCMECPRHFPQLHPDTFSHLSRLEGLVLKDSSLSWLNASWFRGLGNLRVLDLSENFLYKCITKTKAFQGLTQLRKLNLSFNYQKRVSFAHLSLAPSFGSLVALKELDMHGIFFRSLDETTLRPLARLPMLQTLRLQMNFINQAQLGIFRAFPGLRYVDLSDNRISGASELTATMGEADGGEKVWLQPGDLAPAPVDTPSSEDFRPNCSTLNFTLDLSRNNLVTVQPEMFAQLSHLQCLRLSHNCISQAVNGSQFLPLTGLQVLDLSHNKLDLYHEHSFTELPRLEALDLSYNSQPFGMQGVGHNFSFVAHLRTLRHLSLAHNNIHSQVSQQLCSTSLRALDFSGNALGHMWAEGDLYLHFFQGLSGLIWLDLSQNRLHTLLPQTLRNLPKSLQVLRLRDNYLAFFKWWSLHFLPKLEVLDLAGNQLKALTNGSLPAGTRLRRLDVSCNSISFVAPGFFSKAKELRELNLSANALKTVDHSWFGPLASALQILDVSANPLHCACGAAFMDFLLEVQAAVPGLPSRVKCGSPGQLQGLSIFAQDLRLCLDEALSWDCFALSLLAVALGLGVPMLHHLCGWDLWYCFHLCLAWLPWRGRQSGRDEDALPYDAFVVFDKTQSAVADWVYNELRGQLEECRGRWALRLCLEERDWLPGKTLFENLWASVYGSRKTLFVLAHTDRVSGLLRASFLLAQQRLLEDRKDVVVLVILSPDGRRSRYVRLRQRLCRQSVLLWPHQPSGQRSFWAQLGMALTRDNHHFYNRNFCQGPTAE
Assay: hTLR9 antagonism (SEAP inhibition assay) in HEK-Blue-hTLR9 (HEK293) cells, ODN-2006 stimulated
Assay type: cell-based
Conditions: HEK-Blue hTLR9, 1 μM; SEAP, HEK-Blue-hTLR9 cells; read-out: hTLR9 inhibitory activity (% at 1 μM)
Method: hTLR9 Antagonism (SEAP Inhibition Assay) in HEK293 Cell Lines
The SEAP reporter gene in HEK-Blue™-hTLR9 cells is placed under the control of the IFN-b minimal promoter fused to five NF-kB and AP-1 binding sites. The stimulation with a TLR9 ligand (ODN-2006) activates NF-kB and AP-1 which induces the production of SEAP. Levels of SEAP are determined with QUANTI-Blue™ detection medium that turns purple/blue in the presence of alkaline phosphatase. Decrease in the levels of SEAP production as indicated by reduction in absorbance at 650 nm is directly co-related with the TLR9 inhibitory activity of the antagonist (NCE).
HEK-Blue™-hTLR9 cells were maintained in DMEM with 10% FBS, 1% Penicillin/Streptomycin/Amphotericin (complete growth medium) and 0.2% Normocin. For the assay, cells were dissociated by washing in 1×PBS and re-suspended in complete DMEM. Cells were seeded at a density of 20000 cells per well; (40 μl per well) in a 384 well assay plate.
5 μl of 10× antagonist (NCE) was added to the cells in triplicates for each concentration. The plate was incubated for half an hour at 37° C. with 5% CO2. 5 μl of agonist (ODN-2006) was added and the plate was incubated overnight for 18 hours at 37° C. with 5% CO2. 5 μl of supernatant was transferred to a 384 well reading plate and to this 45 μl of Quanti-Blue™ detection reagent was added. The plate was then incubated for an hour at 37° C. SEAP activity in the supernatant was indicated by change in the pink color of Quanti-Blue™ detection reagent to purple/blue and the absorbance was read at 650 nm in the end point mode.

Which inhibition at 1 µM does the source give for `CC1(O)CCN(c2ccc(-c3nccc4[nH]c(CN5CCOCC5)cc34)cc2)CC1` [Example A10, 4-methyl-1-[4-[2-(morpholinomethyl)-1H-pyrrolo[3,2-c]pyridin-4-yl]phenyl] piperidin-4-ol] here?
Its inhibition at 1 µM is 29%.

For `C1=C(c2ccc(-c3nccc4[nH]c(CN5CCOCC5)cc34)cc2)CCN(C2COC2)C1` [Example A11, 4-[[4-[4-[1-(oxetan-3-yl)-3,6-dihydro-2H-pyridin-4-yl]phenyl]-1H-pyrrolo[3,2-c]pyridin-2-yl]methyl] morpholine], which inhibition at 1 µM is on record?
The inhibition at 1 µM was 77.5%.

How did the inhibition at 1 µM turn out when `CC(C)N1CCN(c2ccc(-c3nccc4[nH]c(CN5CCC(F)(F)C5)cc34)cc2)CC1` [Example A18, 2-[(3,3-difluoropyrrolidin-1-yl)methyl]-4-[4-(4-isopropylpiperazin-1-yl)phenyl]-1H-pyrrolo[3,2-c]pyridine] was run?
Its inhibition at 1 µM is 100%.

How did the inhibition at 1 µM turn out when `CC(C)N1CCN(C(=O)c2ccc(-c3nccc4[nH]c(CN5CCOCC5)cc34)cc2)CC1` [Example A19, (4-isopropylpiperazin-1-yl)-[4-[2-(morpholinomethyl)-1H-pyrrolo[3,2-c]pyridin-4-yl]phenyl] methanone] was run?
The inhibition at 1 µM was 90%.

Which inhibition at 1 µM does the source give for `CN1CCN(C(=O)c2ccc(-c3nccc4[nH]c(CN5CCOCC5)cc34)cc2)CC1` [Example A22, (4-methylpiperazin-1-yl)-[4-[2-(morpholinomethyl)-1H-pyrrolo[3,2-c]pyridin-4-yl]phenyl] methanone] here?
Its inhibition at 1 µM is 62%.

`Cc1cc2[nH]c(CN3CCC(F)CC3)cc2c(-c2ccc(N3CCN(C(C)C)CC3)cc2)n1` [Example A27, 2-[(4-fluoro-1-piperidyl)methyl]-4-[4-(4-isopropylpiperazin-1-yl)phenyl]-6-methyl-1H-pyrrolo[3,2-c]pyridine] was tested. Which inhibition at 1 µM did it give?
Its inhibition at 1 µM is 96.4%.

For `CN1CCN(c2ccc(-c3nc(C(F)(F)F)cc4[nH]c(CN5CCOCC5)cc34)cc2)CC1` [Example A31, 4-[[4-[4-(4-methylpiperazin-1-yl)phenyl]-6-(trifluoromethyl)-1H-pyrrolo[3,2-c]pyridin-2-yl]methyl] morpholine], which inhibition at 1 µM is on record?
The inhibition at 1 µM was 66%.

`CC(C)N1CCN(c2ccc(-c3nc(C(F)(F)F)cc4[nH]c(CN5CCOCC5)cc34)cc2)CC1` [Example A32, 4-[[4-[4-(4-isopropylpiperazin-1-yl)phenyl]-6-(trifluoromethyl)-1H-pyrrolo[3,2-c]pyridin-2-yl]methyl] morpholine] was tested. Which inhibition at 1 µM did it give?
Its inhibition at 1 µM is 49%.

With `c1cc2[nH]c(CN3CCOCC3)cc2c(-c2cnn(C3CCNCC3)c2)n1` [Example A45, 4-[[4-[1-(4-piperidyl)pyrazol-4-yl]-1H-pyrrolo [3,2-c]pyridin-2-yl]methyl] morpholine] as the molecule, how does the inhibition at 1 µM read?
The inhibition at 1 µM was 76.1%.

With `c1cc(-c2nccc3[nH]c(CN4CCOCC4)cc23)cc(N2CCNCC2)c1` [Example A46, 4-[[4-(3-(piperazin-1-yl)phenyl)-1H-pyrrolo[3,2-c]pyridin-2-yl]methyl] morpholine] as the molecule, how does the inhibition at 1 µM read?
Its inhibition at 1 µM is 83.5%.

With `CC(C)N1CCN(c2ncc(-c3nccc4[nH]c(CN5CCOCC5)cc34)s2)CC1` [Example A58, 4-[[4-[2-(4-isopropylpiperazin-1-yl)thiazol-5-yl]-1H-pyrrolo[3,2-c]pyridin-2-yl]methyl]morpholine] as the molecule, how does the inhibition at 1 µM read?
Its inhibition at 1 µM is 98%.

How did the inhibition at 1 µM turn out when `CN1CCN(c2ccc(-c3nccc4[nH]c(CN5CCOCC5)cc34)cn2)CC1` [Example A59, 4-[[4-[6-(4-methylpiperazin-1-yl)-3-pyridyl]-1H-pyrrolo[3,2-c]pyridin-2-yl]methyl]morpholine] was run?
The inhibition at 1 µM was 94.7%.

For `c1cc2[nH]c(CN3CCOCC3)cc2c(-c2ccc(C3CCN(C4COC4)CC3)cc2)n1` [Example A65, 4-[[4-[4-[1-(oxetan-3-yl)-4-piperidyl]phenyl]-1H-pyrrolo[3,2-c]pyridin-2-yl]methyl] morpholine], which inhibition at 1 µM is on record?
The inhibition at 1 µM was 70.5%.

`COC(=O)C1CCN(c2ccc(-c3nccc4[nH]c(CN5CCOCC5)cc34)cc2)CC1` [Example A67, methyl 1-[4-[2-(morpholinomethyl)-1H-pyrrolo[3,2-c]pyridin-4-yl]phenyl]piperidine-4-carboxylate] was tested. Which inhibition at 1 µM did it give?
Its inhibition at 1 µM is 27.5%.

`O=C(O)C1CCN(c2ccc(-c3nccc4[nH]c(CN5CCOCC5)cc34)cc2)CC1` [Example A68, 1-[4-[2-(morpholinomethyl)-1H-pyrrolo[3,2-c]pyridin-4-yl]phenyl]piperidine-4-carboxylic acid] was tested. Which inhibition at 1 µM did it give?
The inhibition at 1 µM was 21%.

How did the inhibition at 1 µM turn out when `OC1CCN(c2ccc(-c3nccc4[nH]c(CN5CCOCC5)cc34)cc2)CC1` [Example A69, 1-[4-[2-(morpholinomethyl)-1H-pyrrolo[3,2-c]pyridin-4-yl]phenyl]piperidin-4-ol] was run?
The inhibition at 1 µM was 73.5%.

For `CC(C)N1CCN(c2ccc(-c3nccc4[nH]c(CN5CCOCC5)c(Cl)c34)cc2)CC1` [Example A71, 4-[[3-chloro-4-[4-(4-isopropylpiperazin-1-yl)phenyl]-1H-pyrrolo[3,2-c]pyridin-2-yl]methyl]morpholine], which inhibition at 1 µM is on record?
Its inhibition at 1 µM is 86.1%.

With `COC(=O)[C@H]1CCCN1Cc1cc2c(-c3ccc(N4CCN(C(C)C)CC4)cc3)nccc2[nH]1` [Example A73, methyl (2R)-1-[[4-[4-(4-isopropyl-piperazin-1-yl)phenyl]-1H-pyrrolo[3,2-c]pyridin-2-yl]methyl]pyrrolidine-2-carboxylate] as the molecule, how does the inhibition at 1 µM read?
The inhibition at 1 µM was 72%.

How did the inhibition at 1 µM turn out when `FC(F)(F)CN1CCN(c2ccc(-c3nccc4[nH]c(CN5CCOCC5)cc34)cc2)CC1` [Example A75, 4-[[4-[4-[4-(2,2,2,2-trifluoroethyl)piperazin-1-yl]phenyl]-1H-pyrrolo[3,2-c]pyridin-2-yl]methyl]morpholine] was run?
Its inhibition at 1 µM is 34.9%.

With `c1cc2[nH]c(CN3CCOCC3)cc2c(-c2ccc(N3CCN(Cc4cocn4)CC3)cc2)n1` [Example A76, 4-[[4-[4-[4-(oxazol-4-ylmethyl)piperazin-1-yl]phenyl]-1H-pyrrolo[3,2-c]pyridin-2-yl]methyl]morpholine] as the molecule, how does the inhibition at 1 µM read?
Its inhibition at 1 µM is 81.2%.

`CC(C)N1CCN(C2CCC(c3nccc4[nH]c(CN5CCOCC5)cc34)CC2)CC1` (stereo not drawn) [Example A79, 4-[[4-[4-(4-isopropylpiperazin-1-yl)cyclohexyl]-1H-pyrrolo[3,2-c]pyridin-2-yl]methyl]morpholine] was tested. Which inhibition at 1 µM did it give?
Its inhibition at 1 µM is 100%.

Which inhibition at 1 µM does the source give for `c1cc2[nH]c(CN3CCOCC3)cc2c(-c2ccc(N3CCOCC3)cc2)n1` [Example A83, 4-[4-[2-(morpholinomethyl)-1H-pyrrolo[3,2-c]pyridin-4-yl]phenyl]morpholine] here?
The inhibition at 1 µM was 29.5%.

With `Cc1nc(-c2ccc(N3CCN(C(C)C)CC3)cc2)c2cc(CCN3CCCCC3)[nH]c2c1C` [Example B9, 4-[4-(4-isopropylpiperazin-1-yl)phenyl]-6,7-dimethyl-2-[2-(1-piperidyl)ethyl]-1H-pyrrolo[3,2-c]pyridine] as the molecule, how does the inhibition at 1 µM read?
The inhibition at 1 µM was 95.2%.

With `Cc1cc2[nH]c(CCCN3CCOCC3)cc2c(-c2ccc(N3CCN(C)CC3)cc2)n1` [Example C4, 4-[3-[6-methyl-4-[4-(4-methylpiperazin-1-yl)phenyl]-1H-pyrrolo[3,2-c]pyridin-2-yl]propyl]morpholine] as the molecule, how does the inhibition at 1 µM read?
The inhibition at 1 µM was 98.7%.

— patent US9643967B2, “Pyrrolo[3,2-c]pyridine derivatives as TLR inhibitors” (TAKEDA PHARMACEUTICAL COMPANY LIMITED, priority 2013, dated 2017)
